Experiment: in vitro
Conditions: human, hela cells, % viability

| Structure (SMILES) | viability at 28.5 h, 10 µM [%] | viability at 28.5 h, 10 µM (bulk resorufin, single well) [%] |
| --- | --- | --- |
| Cn1ncc2c(=O)n(Cc3noc(-c4ccco4)n3)cnc21 [CBK305053] | 97.1 | – |
| c1ccc(CNc2nccn3ccnc23)nc1 [CBK037526] | 104 | – |
| COC(=O)CCn1c(-c2ccccn2)cc2cccnc21 [CBK282634] | 89.8 | – |
| Cc1nc(N)nc(NCCC2CCCN(C)C2)c1Cl (centres unmarked) [CBK307445] | 88.6 | – |
| O=C(Nc1nccc(-c2cc(OCC(F)(F)F)ccc2OCC(F)(F)F)n1)c1cccs1 [CBK005949] | 95.5 | – |
| O=S(=O)(Nc1ncc(Br)c2cccnc12)c1ccc(Oc2ccccc2)cc1 [CBK073886] | 105 | – |
| CC(C)CNc1nc(-c2cccc(O)c2)cnc1N [CBK063862] | 99.1 | – |
| COc1cccc2sc(NC(=O)CN3CCOCC3)nc12 [CBK149281] | 98.8 | – |
| Cc1ccccc1OCc1nnc(SCC(=O)NC2CCCCC2)n1C [CBK265817] | 82.5 | – |
| Cc1cc(C)c(NC(=O)CSc2ncccc2-c2nc(C)no2)c(C)c1 [CBK287821] | 86.7 | – |
| CN(C(=O)c1c[nH]nc1-c1ccc(CNC(=O)c2cccc(Cl)c2)cc1)c1ccccc1 [CBK285597] | 79.9 | – |
| COc1cc(CNC(=O)C(C)SCc2ccccc2)ccn1 (centres unmarked) [CBK298331] | 90.8 | – |
| Cc1ccc(S(=O)(=O)n2nncc2C)cc1 [CBK001921] | 111 | – |
| Cc1cc(=[N+]2CCCCC2)cc(C)o1 [CBK022824I] | 96.7 | – |
| O=C(Cc1ccccc1)Nc1nnc(C2=COCCO2)o1 [CBK287416] | 92.2 | – |
| Cc1cc(C)cc(NC(=O)c2ccccc2NS(=O)(=O)c2cccc(Cl)c2)c1 [CBK113887] | 94.9 | – |
| CCCn1cnc2cc(NC(=O)Cn3cccc(C(=O)NC4CCCCC4)c3=O)ccc21 [CBK286075] | 93 | – |
| Cc1ccccc1N1CCC(CNC(=O)CCc2ccnn2C)C1 (centres unmarked) [CBK306543] | 89 | – |

| Structure (SMILES) | viability at 28.5 h, 10 µM [%] | viability at 28.5 h, 10 µM (bulk resorufin, single well) [%] |
| --- | --- | --- |
| CC(=O)NC(c1ccccn1)C1CCCN(C(=O)C(C)(C)C)C1 (centres unmarked) [CBK285101] | 91.6 | – |
| COc1ccc(OCCN(C)c2cnn(-c3ccc(C(=O)O)cc3)c(=O)c2Cl)cc1 [CBK296627] | 104 | – |
| Cc1[nH]c2ccc(F)cc2c1CC(=O)N(C)CCN(C)C [CBK282726] | 84.1 | – |
| O=C1NC(=O)N(c2ccc(Cl)cc2)C(=O)/C1=C\NC(CO)(CO)CO [CBK264421] | – | 99.7 |
| COc1ccc(CN2CCC(N3CCCCC3)CC2)c(OC)c1 [CBK261848] | 103 | – |
| Cc1cn(C2CC(O)C(CN=[N+]=[N-])O2)c(=O)[nH]c1=O (centres unmarked) [CBK201256] | 102 | – |
| CCC(C)(C)c1ccc(S(=O)(=O)N2CCN(Cc3c(C)nn(C)c3C)CC2)cc1 [CBK062835] | 97.2 | – |
| COc1ccc(C)cc1S(=O)(=O)N1CCCC(C(=O)NCc2ccccn2)C1 (centres unmarked) [CBK268503] | 102 | – |
| O=S(=O)(N1CCCCCC1)n1ccnc1 [CBK269241] | 92.1 | – |
| CN1CCC(COC(=O)Nc2cccnc2)CC1 [CBK138232] | 108 | – |
| CCOc1ccc(-c2cncc(N3CCN(C(=O)c4ccco4)CC3)n2)cc1 [CBK065860] | 109 | – |
| COc1ccc([C@@]23CC[C@@H](NC(=O)Nc4ccc(Cl)cc4[N+](=O)[O-])C[C@@H]2N(C)CC3)cc1OC [CBK036474T] | 84.1 | – |
| O=C(CSCc1c(Cl)cccc1Cl)Nc1ccc(S(=O)(=O)N2CCOCC2)cc1 [CBK266276] | 109 | – |
| N#Cc1c(C(F)(F)F)cc(-c2ccc(Cl)cc2)nc1SCC(=O)O [CBK131885] | 97.5 | – |
| COCCCn1c(C)c(C)n2c3c(=O)n(CCN4CCCCC4)c(=O)n(C)c3nc12 [CBK269762] | 102 | – |
| O=C(c1cc(F)c(F)cc1F)N1CCC2(CCCN(C(=O)c3cccc4[nH]ccc34)C2)C1 (centres unmarked) [CBK131544] | 97.3 | – |
| CCCC1c2cccn2CCN1S(=O)(=O)c1ccc2[nH]c(=O)[nH]c(=O)c2c1 (centres unmarked) [CBK286388] | 101 | – |
